13 compounds from patent US20260356851A1, “TRICYCLIC COMPOUNDS AND USES THEREOF” (HUTCHMED LIMITED, priority 2023, published 2026) can be followed below.

What all share (format): cell-based
The target in assay [1] is T1, pERK1/2 (Thr202/Tyr204), NCI-1H441 (KRAS G12V) (Homo sapiens, UniProt P01116, G12V).
T1 construct: pERK1/2 HTRF read-out
The assay can be described thus: Assay of intracellular pERK1/2 (Thr202/Tyr204) phosphorylation in NCI-H441 cells (KRAS G12V). The following applies: pERK1/2, 2 days, read-out: NCI-H441 (KRAS G12V) IC50. Summed up: (§1)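 HTRF detection of Thr202/Tyr204-phosphorylated ERK1/2 (665/615 nm ratio) in lysates from cells treated 2 days with serially 3-fold diluted compound.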

For assay [2], the target named is T2, pERK1/2 (Thr202/Tyr204), PANC-1 (KRAS G121D) (Homo sapiens, UniProt P01116, G12D).
T2 construct: pERK1/2 HTRF read-out
T2 sequence (P01116 1-188 isoform P01116-2 G12D): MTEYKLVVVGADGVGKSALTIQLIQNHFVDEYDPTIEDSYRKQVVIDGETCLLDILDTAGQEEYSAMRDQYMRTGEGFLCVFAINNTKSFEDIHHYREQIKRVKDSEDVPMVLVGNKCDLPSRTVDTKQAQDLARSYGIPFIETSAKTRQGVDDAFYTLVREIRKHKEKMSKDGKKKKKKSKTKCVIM
The assay can be described thus: Assay of intracellular pERK1/2 (Thr202/Tyr204) phosphorylation in PANC-1 cells (KRAS G12D). The following applies: pERK1/2, 2 days, read-out: PANC-1 (KRAS G12D) IC50. The gist of the method:
as §1

Assay [3] has as its target T3, pERK1/2 (Thr202/Tyr204), NCI-1H358 (KRAS G12C) (Homo sapiens, UniProt P01116, G12C).
T3 construct: pERK1/2 HTRF read-out
The assay can be described thus: Assay of intracellular pERK1/2 (Thr202/Tyr204) phosphorylation in NCI-H358 cells (KRAS G12C). The following applies: pERK1/2, 2 days, read-out: NCI-H358 (KRAS G12C) IC50. Summed up: as §1

By IC50 is commonly meant the point on the concentration scale where inhibition reaches its midpoint.

T1 sequence (P01116 1-188 isoform P01116-2 G12V): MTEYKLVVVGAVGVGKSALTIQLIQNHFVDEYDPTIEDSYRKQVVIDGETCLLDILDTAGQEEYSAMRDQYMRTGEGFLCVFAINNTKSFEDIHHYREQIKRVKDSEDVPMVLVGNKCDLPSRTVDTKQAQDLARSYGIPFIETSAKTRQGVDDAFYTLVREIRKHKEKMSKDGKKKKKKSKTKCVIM
T3 sequence (P01116 1-188 isoform P01116-2 G12C): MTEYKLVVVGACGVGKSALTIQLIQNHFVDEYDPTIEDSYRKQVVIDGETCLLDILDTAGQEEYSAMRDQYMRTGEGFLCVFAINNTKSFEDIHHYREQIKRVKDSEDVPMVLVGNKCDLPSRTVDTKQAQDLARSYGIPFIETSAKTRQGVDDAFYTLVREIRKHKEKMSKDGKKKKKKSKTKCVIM

Turning to `CC(c1cccnc1N)N1c2nc(OC[C@@]34CCCN3C[C@H](F)C4)nc3c(F)c(-c4cc(N)c(F)c(Cl)c4C(F)(F)F)nc(c23)OC[C@@H]1C` (single isomer, unassigned) [Compound 269, 3-((R or S)-1-((S)-5-(5-amino-3-chloro-4-fluoro-2-(trifluoromethyl)phenyl)-4-fluoro-2-(((2R,7aS)-2-fluorotetrahydro-1H-pyrrolizin-7a(5H)-yl)methoxy)-9-methyl-8,9-dihydro-10H-7-oxa-1,3,6,10-tetraazacyclohepta[de]naphthalen-10-yl)ethyl)pyridin-2-amine], the IC50 is 0.3 nM in assay [1], 0.6 nM in assay [2] and 0.2 nM in assay [3].
Consider `CC(c1cccnc1N)N1c2nc(OC[C@@]34CCCN3C[C@H](F)C4)nc3c(F)c(-c4cc(N)cc(Cl)c4C(F)(F)F)nc(c23)OC[C@@H]1C` (single isomer, unassigned) [Compound 270, 3-((R or S)-1-((S)-5-(5-amino-3-chloro-2-(trifluoromethyl)phenyl)-4-fluoro-2-(((2R,7aS)-2-fluorotetrahydro-1H-pyrrolizin-7a(5H)-yl)methoxy)-9-methyl-8,9-dihydro-10H-7-oxa-1,3,6,10-tetraazacyclohepta[de]naphthalen-10-yl)ethyl)pyridin-2-amine], for which the IC50 worked out at 0.7 nM in assay [1], 0.3 nM in assay [2] and 0.3 nM in assay [3].
Turning to `CC(c1cccnc1N)N1c2nc(OC[C@@]34CCCN3C[C@H](F)C4)nc3c(F)c(-c4cc(N)cc(Cl)c4C(F)(F)F)nc(c23)OC[C@@H]1C` (single isomer, unassigned) [Compound 271, 3-((R or S)-1-((S)-5-(5-amino-3-chloro-2-(trifluoromethyl)phenyl)-4-fluoro-2-(((2R,7aS)-2-fluorotetrahydro-1H-pyrrolizin-7a(5H)-yl)methoxy)-9-methyl-8,9-dihydro-10H-7-oxa-1,3,6,10-tetraazacyclohepta[de]naphthalen-10-yl)ethyl)pyridin-2-amine], the results for the IC50 in assay [1], in assay [2] and in assay [3] were more than 100 nM, more than 100 nM and 66 nM, respectively.
In the case of `CC(c1cccnc1N)N1c2nc(OC[C@@]34CCCN3C[C@H](F)C4)nc3c(F)c(-c4cc(N)c(F)c(Cl)c4C(F)(F)F)nc(c23)OC[C@@H]1C` (single isomer, unassigned) [Compound 272, 3-((R or S)-1-((S)-5-(5-amino-3-chloro-4-fluoro-2-(trifluoromethyl)phenyl)-4-fluoro-2-(((2R,7aS)-2-fluorotetrahydro-1H-pyrrolizin-7a(5H)-yl)methoxy)-9-methyl-8,9-dihydro-10H-7-oxa-1,3,6,10-tetraazacyclohepta[de]naphthalen-10-yl)ethyl)pyridin-2-amine], the IC50 in assay [1] was more than 100 nM; in assay [2] it was more than 100 nM; in assay [3], 57 nM.
For `C#Cc1c(F)ccc2cc(O)cc(-c3nc4c5c(nc(OC[C@@]67CCCN6C[C@H](F)C7)nc5c3F)N(C(C)c3cccnc3N)[C@@H](C)CO4)c12` (single isomer, unassigned) [Compound 273, 4-((S)-10-((R or S)-1-(2-aminopyridin-3-yl)ethyl)-4-fluoro-2-(((2R,7aS)-2-fluorotetrahydro-1H-pyrrolizin-7a(5H)-yl)methoxy)-9-methyl-9,10-dihydro-8H-7-oxa-1,3,6,10-tetraazacyclohepta[de]naphthalen-5-yl)-5-ethynyl-6-fluoronaphthalen-2-ol], the IC50 stood at 1 nM in assay [1], 0.4 nM in assay [2] and 0.5 nM in assay [3].
Consider `C#Cc1c(F)ccc2cc(O)cc(-c3nc4c5c(nc(OC[C@@]67CCCN6C[C@H](F)C7)nc5c3F)N(C(C)c3cccnc3N)[C@@H](C)CO4)c12` (single isomer, unassigned) [Compound 274, 4-((S)-10-((R or S)-1-(2-aminopyridin-3-yl)ethyl)-4-fluoro-2-(((2R,7aS)-2-fluorotetrahydro-1H-pyrrolizin-7a(5H)-yl)methoxy)-9-methyl-9,10-dihydro-8H-7-oxa-1,3,6,10-tetraazacyclohepta[de]naphthalen-5-yl)-5-ethynyl-6-fluoronaphthalen-2-ol], for which the IC50 in assay [1] is 8 nM; in assay [2], 13 nM; in assay [3], 5 nM.
In the same order, the values of `CC(c1cccnc1N)N1c2nc(OC[C@@]34CCCN3C[C@H](F)C4)nc3c(F)c(-c4cc(O)cc5ccc(F)c(F)c45)nc(c23)OC[C@@H]1C` (single isomer, unassigned) [Compound 275, 4-((S)-10-((R or S)-1-(2-aminopyridin-3-yl)ethyl)-4-fluoro-2-(((2R,7aS)-2-fluorotetrahydro-1H-pyrrolizin-7a(5H)-yl)methoxy)-9-methyl-9,10-dihydro-8H-7-oxa-1,3,6,10-tetraazacyclohepta[de]naphthalen-5-yl)-5,6-difluoronaphthalen-2-ol] are 0.8 nM, 0.4 nM and 0.4 nM.
In the case of `CC(c1cccnc1N)N1c2nc(OC[C@@]34CCCN3C[C@H](F)C4)nc3c(F)c(-c4cc(O)cc5ccc(F)c(F)c45)nc(c23)OC[C@@H]1C` (single isomer, unassigned) [Compound 276, 4-((S)-10-((R or S)-1-(2-aminopyridin-3-yl)ethyl)-4-fluoro-2-(((2R,7aS)-2-fluorotetrahydro-1H-pyrrolizin-7a(5H)-yl)methoxy)-9-methyl-9,10-dihydro-8H-7-oxa-1,3,6,10-tetraazacyclohepta[de]naphthalen-5-yl)-5,6-difluoronaphthalen-2-ol], the results for the IC50 in assay [1], in assay [2] and in assay [3] were more than 100 nM, more than 100 nM and 77 nM, respectively.
`Cc1c(F)c(N)cc(-c2nc3c4c(nc(OC[C@@H]5C[C@@H](F)CN5C)nc4c2F)N(C(C)c2cccnc2N)[C@@H](C)CO3)c1C(F)(F)F` (single isomer, unassigned) [Compound 277, 3-((R or S)-1-((S)-5-(5-amino-4-fluoro-3-methyl-2-(trifluoromethyl)phenyl)-4-fluoro-2-(((2S,4R)-4-fluoro-1-methylpyrrolidin-2-yl)methoxy)-9-methyl-8,9-dihydro-10H-7-oxa-1,3,6,10-tetraazacyclohepta[de]naphthalen-10-yl)ethyl)pyridin-2-amine]: the IC50 in assay [1] is more than 100 nM; in assay [2], more than 100 nM; in assay [3], 93 nM.
On to `Cc1c(F)c(N)cc(-c2nc3c4c(nc(OC[C@@H]5C[C@@H](F)CN5C)nc4c2F)N(C(C)c2cccnc2N)[C@@H](C)CO3)c1C(F)(F)F` (single isomer, unassigned) [Compound 278, 3-((R or S)-1-((S)-5-(5-amino-4-fluoro-3-methyl-2-(trifluoromethyl)phenyl)-4-fluoro-2-(((2S,4R)-4-fluoro-1-methylpyrrolidin-2-yl)methoxy)-9-methyl-8,9-dihydro-10H-7-oxa-1,3,6,10-tetraazacyclohepta[de]naphthalen-10-yl)ethyl)pyridin-2-amine], for which the IC50 in assay [1] is 0.6 nM; in assay [2], 2 nM; in assay [3], 0.2 nM.
On to `CCc1c(F)ccc2cc(O)cc(-c3nc4c5c(nc(OC[C@@]67CCCN6C[C@H](F)C7)nc5c3F)N(C(C)c3cccnc3N)[C@@H](C)CO4)c12` (single isomer, unassigned) [Compound 279, 4-((S)-10-((R or S)-1-(2-aminopyridin-3-yl)ethyl)-4-fluoro-2-(((2R,7aS)-2-fluorotetrahydro-1H-pyrrolizin-7a(5H)-yl)methoxy)-9-methyl-9,10-dihydro-8H-7-oxa-1,3,6,10-tetraazacyclohepta[de]naphthalen-5-yl)-5-ethyl-6-fluoronaphthalen-2-ol], for which the results for the IC50 in assay [1], in assay [2] and in assay [3] were 0.4 nM, 0.2 nM and 0.3 nM, respectively.
Regarding `CCc1c(F)ccc2cc(O)cc(-c3nc4c5c(nc(OC[C@@]67CCCN6C[C@H](F)C7)nc5c3F)N(C(C)c3cccnc3N)[C@@H](C)CO4)c12` (single isomer, unassigned) [Compound 280, 4-((S)-10-((R or S)-1-(2-aminopyridin-3-yl)ethyl)-4-fluoro-2-(((2R,7aS)-2-fluorotetrahydro-1H-pyrrolizin-7a(5H)-yl)methoxy)-9-methyl-9,10-dihydro-8H-7-oxa-1,3,6,10-tetraazacyclohepta[de]naphthalen-5-yl)-5-ethyl-6-fluoronaphthalen-2-ol], the IC50 in assay [1] turned out to be 11 nM; in assay [2] it was 5 nM; in assay [3] it was 6 nM.
The matching figures for `Cc1cc(N)cc(-c2nc3c4c(nc(OC[C@@H]5C[C@@H](F)CN5C)nc4c2F)N(C(C)c2cccnc2N)[C@@H](C)CO3)c1C(F)(F)F` (single isomer, unassigned) [Compound 282, 3-((R or S)-1-((S)-5-(5-amino-3-methyl-2-(trifluoromethyl)phenyl)-4-fluoro-2-(((2S,4R)-4-fluoro-1-methylpyrrolidin-2-yl)methoxy)-9-methyl-8,9-dihydro-10H-7-oxa-1,3,6,10-tetraazacyclohepta[de]naphthalen-10-yl)ethyl)pyridin-2-amine]: 0.4 nM, 3 nM and 0.2 nM.
